# Assay results taken from patent US20220339260A1, “METHOD FOR PRODUCING INSULIN-PRODUCING CELL USING DIHYDROINDOLIZINONE DERIVATIVES” (TOKYO INSTITUTE OF TECHNOLOGY, priority 2019, published 2022).
# How the values were obtained:
# Toe human iPS cells = assay: Differentiation of Toe human iPS cells into iPS-β cells, monolayer culture, protocol #1; format: cell-based; settings: treatment from later stage of stage 3 to initial stage of stage 5
# Description: The Toe human iPS cells were seeded in CellBIND 6-well (CORNING, CLS3335) cell culture plate coated with synthemax II, and differentiated into primitive gut tube cells by the previously described method (Shahjalal et al., 2014). The cells were dissociated with TrypLE Select (Thermo Fisher, 12563011) and cryopreserved in BanBanker (Nippon genetics) at a density of 1.0 to 2.0×10^7 cells/mL until use. One day before compound addition, the cells were thawed in a medium for stage 3 (DMEM (high glucose), 0.25 μM SANT1 (Wako, 197-16351), 0.1 μM LDN193189 (Stemgent, 04-0074), 10 μM SB431542, 2 μM retinoic acid, 1% B27-free serum supplement (Life Technologies, 17504044), and seeded at 150,000 cells per well in CellBIND 96-well (Corning, 3340) cell culture plated coated with synthemax II. The cells were cultured for 1 day in a medium for stage 3 containing a test compound or a negative control (0.01% DMSO). The cells were further cultured for 2 days and 1 day in media for stages 4 and 5, respectively, containing the test compound or the negative control. On the next day, the cells were fixed in 4% paraformaldehyde for analysis using a high-content imager.
# iPS-β cells = assay: Response of iPS-β cells to insulin secretagogues (c-peptide secretion); format: cell-based, human; settings: glibenclamide, exendin 4, and KCl
# Description: Batch-mode GSIS assay was carried out as described below. An aliquot of the obtained human iPS-β cells was washed with LG-KRBH as described above. Then, the cells were incubated for 30 minutes or 1 hour in LG-HKRB buffer and subsequently incubated for the same time thereas in HG-HKRB buffer. In some experiments, after washing of the cells, the cells were dispensed into some aliquots and incubated for 1 hour in HG-HKRB buffer containing 0.01% DMSO or several types of insulin secretagogues. The C-peptide concentration of a sample was measured using alphaLISA C-peptide kit (PerkinElmer, AL299F) or C-peptide ELISA and corrected with the DNA content of the cells used in the GSIS assay.
# RPChiPS771 iPSC = assay: Differentiation of RPChiPS771 iPS cells, sphere culture, protocol #1; format: cell-based, human; settings: 0.25 μM, methionine depletion 5 hours
# Description: (§1) The RPChipS771 cells were maintained as described above, and differentiated according to protocol #1. Briefly, on day 0, the cells were dissociated with TrypLE Select, transferred at a concentration of 1×10^6 cells/mL in Essential 8 medium to a low-attachment 6-well plate (Greiner, 657185), and cultured on a rotary shaker (95 rpm). On day 1, the medium was replaced with methionine-depleted medium KA01 (Ajinomoto), and the cells were cultured for 5 hours. The medium was replaced with differentiation medium 1 (DMEM (high glucose), L-Gln, NEAA, 0.01 mM β-mercaptoethanol, 100 ng/mL activin A, B27 supplement, 3 μM CHIR99021), and the cells were cultured for 1 day (stage 1-1). Then, the medium was replaced with medium 1 free from CHIR99021, and the cells were cultured for 2 days (stage 1-2). […]
# Ff-I01s01 = assay: Differentiation of Ff-I01s01 iPS cells, sphere culture, protocol #2; format: cell-based, human
# Description: The FfI-01s01 cells were maintained as described above and then differentiated according to protocol #2. Briefly, the cells were dissociated with TrypLE Select, transferred at a concentration of 1×10^6 cells/mL in AK03N medium (Ajinomoto Co., Inc.) to a low-attachment 6-well plate, and cultured for 24 hours on a rotary shaker (95 rpm). Then, the medium was replaced with AK03N-based methionine-depleted medium KA01, and the cells were cultured for 5 hours. Then, the medium was replaced with M1-1 AKM medium, and the cells were cultured for 24 hours (stage 1-1). The cells were cultured for 2 days in M1-2 AKM medium (stage 1-2), subsequently cultured for 2 days in M2 AKM medium (stage 2-1), cultured for 2 days in S2 medium (stage 2-2), cultured for 2 days in S3 medium (stage 3), cultured for 5 days in S4 medium (stage 4), cultured for 4 days in S5-1 medium (stage 5-1), and cultured for 3 days in S5-2 medium (stage 5).
# In the case of evaluating the effectiveness of a compound for a differentiation rate and a cell function, a test compound and a negative control ([…]), and immunostaining was carried out on days 14 (at the completion of stage 4) and 21 (at the completion of stage 5) in order to confirm an effect on positivity to insulin, NKX6.1, and PDX1. GSIS assay was carried out on day 21.
# Immunocytochemistry was carried out according to a general protocol using the following antibodies: rabbit anti-MAFA (Abcam; ab26405; 1/100×), goat anti-PDX1 (R&D systems; AF2419; 1/100×), mouse anti-NKX6.1 (Developmental Studies Hybridoma Bank, University of Iowa; F64A6B4; 1/100×), guinea pig anti-INSULIN (Dako; IR002; 1/10×), mouse anti-INSULIN (Sigma-Aldrich; 12018; 1/1000×), rabbit anti-C-peptide (Cell Signaling; 4593; 1/100×), rabbit anti-GFP (MBL International Corp; 598; 1/1000×), and mouse anti-GLUCAGON (Sigma-Aldrich; G2654; 1/1000×). […]
# [1] = tested on: iPS-β cells (RpChiPSC771); assay: GSIS function assay of iPS-β cells from sphere culture of RPChiPSC771, protocol #1; format: cell-based, human; settings: 1 μM, treatment between stages 3 and 4
# Description: as §1
# Batch-mode GSIS assay was carried out as described below. […] The C-peptide concentration of a sample was measured using alphaLISA C-peptide kit (PerkinElmer, AL299F) or C-peptide ELISA and corrected with the DNA content of the cells used in the GSIS assay.
smiles,measurement,setting,value
"O=C1CCC(C(=O)Nc2ncc(-c3ccc(OC(F)(F)F)cc3)s2)n2cccc21 (centres unmarked) [Synthesis Example 9, 8-Oxo-N-[5-[4-(trifluoromethoxy)phenyl]thiazol-2-yl]-6,7-dihydro-5H-indolizine-5-carboxamide]",differentiation into iPS-β cells (INS+ cells),Toe human iPS cells,stronger efficacy than that of the original compound K-1
same,c-peptide secretion by stimulation with insulin secretagogues,iPS-β cells,enhanced c-peptide secretion
same,differentiation into INSULIN+PDX1+ double-positive cells,RPChiPS771 iPSC,enhanced differentiation
same,differentiation depending on time window of addition,Ff-I01s01; added in a time window including stage 3,enhance differentiation most effectively
same,"differentiation into INSULIN+NKX6.1+, NKX6.1+PDX1+ double-positive and INSULIN+NKX6.1+PDX1+ triple-positive cells","Ff-I01s01; protocol #2, end of stage 4 and later",enhanced differentiation
same,production of NKX6.1+ and INSULIN+NKX6.1+ double-positive cells,Ff-I01s01; treatment particularly in stages 3 to 5,promoted the production
same,glucose stimulated insulin secretion (GSIS) activity of obtained iPS-β cells,[1],enhanced
same,insulin secretion dynamics in step-wise time-course measurement,[1],rapid first-phase insulin secretion and long-lasting second-phase insulin secretion
